Results reported in ChEMBL document CHEMBL1201862, “PubChem BioAssay data set” (2004).
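Five concentrations, 48 hours, 96-well plates. At the GI50, growth is halved.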 Activity calls are given as the source filed them. Rule as the data show it: active = GI50 up to about 1.1 µM and inactive = higher.

Legend:
Assay in all cases: inhibition of tumour cell growth, NCI panel, 48 h
SW-620 = system: SW-620
HCC 2998 = system: HCC 2998
COLO 205 = system: COLO 205
NCI-H23 = system: NCI-H23
CCRF-CEM = system: CCRF-CEM
HCT-15 = system: HCT-15
NCI-H226 = system: NCI-H226
MCF7 = system: MCF7
SR = system: SR
MDA-N = system: MDA-N
TK-10 = system: TK-10
MDA-MB-435 = system: MDA-MB-435
IGROV-1 = system: IGROV-1
SK-OV-3 = system: SK-OV-3
OVCAR-5 = system: OVCAR-5
LOX IMVI = system: LOX IMVI
T47D = system: T47D
NCI-H522 = system: NCI-H522
M14 = system: M14
786-0 = system: 786-0
K562 = system: K562
SN12C = system: SN12C
SK-MEL-5 = system: SK-MEL-5
EKVX = system: EKVX
BT-549 = system: BT-549
PC-3 = system: PC-3
OVCAR-4 = system: OVCAR-4
DU-145 = system: DU-145
A498 = system: A498
NCI/ADR-RES = system: NCI/ADR-RES
HOP-62 = system: HOP-62
MOLT-4 = system: MOLT-4
KM12 = system: KM12
OVCAR-3 = system: OVCAR-3
Hs-578T = system: Hs-578T
ACHN = system: ACHN
SK-MEL-2 = system: SK-MEL-2
RPMI-8226 = system: RPMI-8226
MDA-MB-231 = system: MDA-MB-231
Malme-3M = system: Malme-3M
SNB-19 = system: SNB-19
HCT-116 = system: HCT-116
UACC-62 = system: UACC-62
HL-60 = system: HL-60
UO-31 = system: UO-31
U-251 = system: U-251
SNB-75 = system: SNB-75
SF-539 = system: SF-539
RXF 393 = system: RXF 393
SF-295 = system: SF-295
HT-29 = system: HT-29
SF-268 = system: SF-268
SK-MEL-28 = system: SK-MEL-28
UACC-257 = system: UACC-257
CAKI-1 = system: CAKI-1
NCI-H460 = system: NCI-H460
A549 = system: A549
HOP-92 = system: HOP-92
OVCAR-8 = system: OVCAR-8

For Cc1cc(NC2=CC(=O)C(=O)c3ccccc32)no1, the GI50 (SW-620) was 4.94 µM (inactive), the GI50 (HCC 2998) was 20.7 µM (inactive) and the GI50 (COLO 205) was 16.1 µM (inactive). For the same molecule, the GI50 (NCI-H23) was 1.54 µM (inactive), the GI50 (CCRF-CEM) was 9.66 µM (inactive) and the GI50 (HCT-15) was 3.62 µM. The GI50 (NCI-H226) was 17.6 µM (inactive), the GI50 (MCF7) was 2.81 µM (inactive) and the GI50 (SR) was 7.16 µM (inactive). For the same molecule, the GI50 (MDA-N) was 1.85 µM (inactive), the GI50 (TK-10) was 26.1 µM (inactive) and the GI50 (MDA-MB-435) was 1.88 µM (inactive). The GI50 (IGROV-1) was 8.28 µM (inactive), the GI50 (SK-OV-3) was 19.4 µM (inactive) and the GI50 (OVCAR-5) was 5.5 µM (inactive). For the same molecule, the GI50 (LOX IMVI) was 1.84 µM (inactive), the GI50 (T47D) was 11.9 µM (inactive) and the GI50 (NCI-H522) was 18.5 µM (inactive). For the same molecule, the GI50 (M14) was 14.8 µM (inactive), the GI50 (786-0) was 15.1 µM (inactive) and the GI50 (K562) was 3.89 µM (inactive). For the same molecule, the GI50 (SN12C) was 2.88 µM (inactive), the GI50 (SK-MEL-5) was 2.26 µM (inactive) and the GI50 (EKVX) was 16.1 µM (inactive). The GI50 (BT-549) was 5.53 µM (inactive), the GI50 (PC-3) was 10.3 µM (inactive) and the GI50 (OVCAR-4) was 8.22 µM (inactive). The GI50 (DU-145) was 16.4 µM (inactive), the GI50 (A498) was 18.7 µM (inactive) and the GI50 (NCI/ADR-RES) was 3.87 µM (inactive). For the same molecule, the GI50 (HOP-62) was 17.6 µM (inactive), the GI50 (MOLT-4) was 8.57 µM (inactive) and the GI50 (KM12) was 12.6 µM (inactive). The GI50 (OVCAR-3) was 3.85 µM (inactive), the GI50 (Hs-578T) was 9.4 µM (inactive) and the GI50 (ACHN) was 11.7 µM (inactive). For the same molecule, the GI50 (SK-MEL-2) was 4.75 µM (inactive), the GI50 (RPMI-8226) was 6.05 µM (inactive) and the GI50 (MDA-MB-231) was 2.83 µM (inactive). The GI50 (Malme-3M) was 2.49 µM (inactive), the GI50 (SNB-19) was 16.2 µM (inactive) and the GI50 (HCT-116) was 14.7 µM (inactive). For the same molecule, the GI50 (UACC-62) was 3.23 µM (inactive), the GI50 (HL-60) was 6.22 µM (inactive) and the GI50 (UO-31) was 7.94 µM (inactive). The GI50 (U-251) was 3.92 µM (inactive), the GI50 (SNB-75) was 9.44 µM (inactive) and the GI50 (SF-539) was 6.4 µM (inactive). For the same molecule, the GI50 (RXF 393) was 15.1 µM (inactive), the GI50 (SF-295) was 9.1 µM (inactive) and the GI50 (HT-29) was 13 µM (inactive). The GI50 (SF-268) was 15.2 µM (inactive), the GI50 (SK-MEL-28) was 13.5 µM (inactive) and the GI50 (UACC-257) was 6.92 µM (inactive). The GI50 (CAKI-1) was 5.71 µM (inactive), the GI50 (NCI-H460) was 6.87 µM (inactive) and the GI50 (A549) was 5 µM (inactive). The GI50 (HOP-92) was 16.4 µM (inactive) and the GI50 (OVCAR-8) was 6.81 µM (inactive).
COc1cc2cc(C(=O)N3CC(CCl)c4ccccc43)[nH]c2c(OC)c1OC (configuration not stated) was tested, and the GI50 (SW-620) was 60.1 µM (inactive), the GI50 (HCC 2998) was 17.2 µM (inactive) and the GI50 (COLO 205) was 33.8 µM (inactive). The GI50 (NCI-H23) was > 100 µM (inactive), the GI50 (CCRF-CEM) was > 36.6 µM (inactive) and the GI50 (HCT-15) was 24.1 µM. The GI50 (NCI-H226) was > 100 µM (inactive), the GI50 (MCF7) was 32.2 µM (inactive) and the GI50 (SR) was 18.1 µM (inactive). For the same molecule, the GI50 (MDA-N) was 40.5 µM (inactive), the GI50 (TK-10) was > 100 µM (inactive) and the GI50 (MDA-MB-435) was 19.2 µM (inactive). For the same molecule, the GI50 (IGROV-1) was > 100 µM (inactive), the GI50 (SK-OV-3) was > 100 µM (inactive) and the GI50 (OVCAR-5) was > 100 µM (inactive). For the same molecule, the GI50 (LOX IMVI) was 44.8 µM (inactive), the GI50 (T47D) was 13.8 µM (inactive) and the GI50 (NCI-H522) was 17.2 µM (inactive). The GI50 (M14) was 62.5 µM (inactive), the GI50 (786-0) was 97.5 µM (inactive) and the GI50 (K562) was 3.1 µM (inactive). For the same molecule, the GI50 (SN12C) was 5.6 µM (inactive), the GI50 (SK-MEL-5) was 24.7 µM (inactive) and the GI50 (EKVX) was > 66.1 µM (inactive). For the same molecule, the GI50 (BT-549) was 28.6 µM (inactive), the GI50 (PC-3) was 21.9 µM (inactive) and the GI50 (OVCAR-4) was > 94.4 µM (inactive). For the same molecule, the GI50 (DU-145) was 62.1 µM (inactive), the GI50 (A498) was 18.2 µM (inactive) and the GI50 (NCI/ADR-RES) was 34.8 µM (inactive). The GI50 (HOP-62) was > 56.2 µM (inactive), the GI50 (MOLT-4) was 13.4 µM (inactive) and the GI50 (KM12) was 23.5 µM (inactive). The GI50 (OVCAR-3) was > 100 µM (inactive), the GI50 (Hs-578T) was > 100 µM (inactive) and the GI50 (ACHN) was > 77.3 µM (inactive). The GI50 (SK-MEL-2) was 62.5 µM (inactive), the GI50 (RPMI-8226) was 10.6 µM (inactive) and the GI50 (MDA-MB-231) was > 100 µM (inactive). For the same molecule, the GI50 (Malme-3M) was 36.5 µM (inactive), the GI50 (SNB-19) was > 100 µM (inactive) and the GI50 (HCT-116) was 67.9 µM (inactive). For the same molecule, the GI50 (UACC-62) was 55.5 µM (inactive), the GI50 (HL-60) was 16.3 µM (inactive) and the GI50 (UO-31) was 47.4 µM (inactive). For the same molecule, the GI50 (U-251) was > 69.2 µM (inactive), the GI50 (SNB-75) was > 92.5 µM (inactive) and the GI50 (SF-539) was > 100 µM (inactive). The GI50 (RXF 393) was > 100 µM (inactive), the GI50 (SF-295) was 70.3 µM (inactive) and the GI50 (HT-29) was 26.8 µM (inactive). The GI50 (SF-268) was > 100 µM (inactive), the GI50 (SK-MEL-28) was > 100 µM (inactive) and the GI50 (UACC-257) was 99.3 µM (inactive). The GI50 (CAKI-1) was 61.2 µM (inactive), the GI50 (NCI-H460) was 17.5 µM (inactive) and the GI50 (A549) was 47.1 µM (inactive). The GI50 (HOP-92) was > 100 µM (inactive) and the GI50 (OVCAR-8) was 81.8 µM (inactive).
For CC1(C)CC(=O)C2=C(C1)C(c1ccccc1Cl)C1C(=O)CC(C)(C)CC1(O)O2 (configuration not stated), the GI50 (SW-620) was 43.7 µM (inactive), the GI50 (HCC 2998) was > 100 µM (inactive) and the GI50 (COLO 205) was > 31.6 µM (inactive). The GI50 (NCI-H23) was > 100 µM (inactive), the GI50 (CCRF-CEM) was 26.8 µM (inactive) and the GI50 (HCT-15) was 42.5 µM. For the same molecule, the GI50 (NCI-H226) was > 100 µM (inactive), the GI50 (MCF7) was 37.3 µM (inactive) and the GI50 (SR) was 28.1 µM (inactive). For the same molecule, the GI50 (MDA-N) was 19.6 µM (inactive), the GI50 (TK-10) was > 100 µM (inactive) and the GI50 (MDA-MB-435) was 25.9 µM (inactive). For the same molecule, the GI50 (IGROV-1) was > 100 µM (inactive), the GI50 (SK-OV-3) was > 100 µM (inactive) and the GI50 (OVCAR-5) was > 100 µM (inactive). The GI50 (LOX IMVI) was > 68.2 µM (inactive), the GI50 (T47D) was > 100 µM (inactive) and the GI50 (NCI-H522) was > 100 µM (inactive). The GI50 (M14) was 98.2 µM (inactive), the GI50 (786-0) was > 100 µM (inactive) and the GI50 (K562) was 15.3 µM (inactive). For the same molecule, the GI50 (SN12C) was > 100 µM (inactive), the GI50 (SK-MEL-5) was 64.1 µM (inactive) and the GI50 (EKVX) was > 100 µM (inactive). The GI50 (BT-549) was > 100 µM (inactive), the GI50 (PC-3) was > 100 µM (inactive) and the GI50 (OVCAR-4) was > 100 µM (inactive). The GI50 (DU-145) was > 100 µM (inactive), the GI50 (A498) was > 100 µM (inactive) and the GI50 (NCI/ADR-RES) was > 89.1 µM (inactive). The GI50 (HOP-62) was > 100 µM (inactive), the GI50 (MOLT-4) was 74.5 µM (inactive) and the GI50 (KM12) was > 100 µM (inactive). The GI50 (OVCAR-3) was > 100 µM (inactive), the GI50 (Hs-578T) was > 72.3 µM (inactive) and the GI50 (ACHN) was > 100 µM (inactive). For the same molecule, the GI50 (SK-MEL-2) was > 100 µM (inactive), the GI50 (RPMI-8226) was > 84.1 µM (inactive) and the GI50 (MDA-MB-231) was > 100 µM (inactive). For the same molecule, the GI50 (Malme-3M) was > 100 µM (inactive), the GI50 (SNB-19) was > 100 µM (inactive) and the GI50 (HCT-116) was 26.9 µM (inactive). The GI50 (UACC-62) was > 64.7 µM (inactive), the GI50 (HL-60) was 4.91 µM (inactive) and the GI50 (UO-31) was > 100 µM (inactive). For the same molecule, the GI50 (U-251) was > 100 µM (inactive), the GI50 (SNB-75) was > 78.3 µM (inactive) and the GI50 (SF-539) was 69 µM (inactive). The GI50 (RXF 393) was > 100 µM (inactive), the GI50 (SF-295) was > 31.6 µM (inactive) and the GI50 (HT-29) was > 100 µM (inactive). The GI50 (SF-268) was > 100 µM (inactive), the GI50 (SK-MEL-28) was > 100 µM (inactive) and the GI50 (UACC-257) was > 49.9 µM (inactive). The GI50 (CAKI-1) was 98.2 µM (inactive), the GI50 (NCI-H460) was > 100 µM (inactive) and the GI50 (A549) was > 100 µM (inactive). For the same molecule, the GI50 (HOP-92) was > 100 µM (inactive) and the GI50 (OVCAR-8) was > 86.7 µM (inactive).
